ChEMBL document CHEMBL4011594, “Discovery and optimization of 2-pyridinone aminal integrase strand transfer inhibitors for the treatment of HIV” (Bioorg Med Chem Lett, 2017)
Values after ≈ are worked out from the molar mass of the structure shown.

Experiments:
[1] = Plasma protein binding in Beagle dog; type: ADME, cell-free, Canis lupus familiaris; settings: read-out: PPB (converted)
[2] = Aqueous solubility of the compound at pH 2; type: physicochemical
[3] = Aqueous solubility of the compound at pH 7; type: physicochemical
[4] = Clearance in Beagle dog at 0.5 mg/kg, iv or 1 mg/kg, po; type: ADME, organism-based, Canis lupus familiaris; settings: in vivo
[5] = Volume of distribution in Beagle dog at 0.5 mg/kg, iv or 1 mg/kg, po; type: ADME, organism-based, Canis lupus familiaris; settings: in vivo
[6] = Half life in Beagle dog at 0.5 mg/kg, iv or 1 mg/kg, po; type: ADME, organism-based, Canis lupus familiaris; settings: in vivo
[7] = Oral bioavailability in Beagle dog at 1 mg/kg; type: ADME, organism-based, Canis lupus familiaris; settings: in vivo
[8] = system: Human immunodeficiency virus 1; experiment: Inhibition of wild-type HIV-1 integrase strand transfer activity assessed as reduction in viral replication in presence of 10% normal human serum
[9] = system: Human immunodeficiency virus type 1 integrase (Human immunodeficiency virus 1), Q7ZJM1 [E92Q]; experiment: Inhibition of HIV-1 integrase E92Q mutant strand transfer activity assessed as reduction in viral replication
[10] = system: Human immunodeficiency virus type 1 integrase (Human immunodeficiency virus 1), Q7ZJM1 [Y143R]; experiment: Inhibition of HIV-1 integrase Y143R mutant strand transfer activity assessed as reduction in viral replication
[11] = system: Human immunodeficiency virus type 1 integrase (Human immunodeficiency virus 1), Q7ZJM1 [Q148R]; experiment: Inhibition of HIV-1 integrase Q148R mutant strand transfer activity assessed as reduction in viral replication
[12] = system: Human immunodeficiency virus type 1 integrase (Human immunodeficiency virus 1), Q7ZJM1 [Q148K]; experiment: Inhibition of HIV-1 integrase Q148K mutant strand transfer activity assessed as reduction in viral replication
[13] = system: Human immunodeficiency virus type 1 integrase (Human immunodeficiency virus 1), Q7ZJM1 [N155H]; experiment: Inhibition of HIV-1 integrase N155H mutant strand transfer activity assessed as reduction viral replication
[14] = system: Human immunodeficiency virus type 1 integrase (Human immunodeficiency virus 1), Q7ZJM1 [G140S,Q148H]; experiment: Inhibition of HIV-1 integrase G140S/Q148H double mutant strand transfer activity assessed as reduction in viral replication
[15] = system: Human immunodeficiency virus 1; experiment: Inhibition of HIV-1 integrase strand transfer activity assessed as reduction in viral replication in presence of 50% normal human serum
[16] = Apparent permeability of the compound; type: physicochemical; settings: not told

Row | SMILES | fraction unbound [1] | solubility [2] | solubility [3] | clearance [4] | Vd [5] | half-life [6] | bioavailability [7] | IP [8] | IP [9] | IP [10] | IP [11] | IP [12] | IP [13] | IP [14] | IP [15] | Papp [16]
1 | C[C@H](O)CN1C(=O)c2c3c(c(O)c(=O)n2[C@@]12CC[C@H]1C[C@H]12)C(=O)N(Cc1ccc(F)c(Cl)c1)CC3 | 0.025 | 125 µM (≈ 62.7 µg/mL) | 98 µM (≈ 49.2 µg/mL) | 2.9 mL/min/kg | 0.5 L/kg | 360 min | 42% | 8 nM | 10 nM | 11 nM | 10 nM | 10 nM | 11 nM | 27 nM | 44 nM | –
2 | O=C1c2c(c3n(c(=O)c2O)[C@@H](C2CC2)N(C2CC2)C3=O)CCN1Cc1ccc(F)c(Cl)c1 | 0.024 | 40 µM (≈ 18.3 µg/mL) | 34 µM (≈ 15.6 µg/mL) | 1.4 mL/min/kg | 0.7 L/kg | 450 min | 44% | 95 nM | 123 nM | 142 nM | 1010 nM | 820 nM | 271 nM | 1540 nM | 1730 nM | –
3 | N#Cc1cccc2c1[C@]1(CC2)NC(=O)c2c3c(c(O)c(=O)n21)C(=O)N(Cc1ccc(F)c(Cl)c1)CC3 | 0.028 | 8 µM (≈ 4.04 µg/mL) | 10 µM (≈ 5.05 µg/mL) | 2.4 mL/min/kg | 0.9 L/kg | 636 min | 40% | 4 nM | 18 nM | 4 nM | 7 nM | 9 nM | 13 nM | 18 nM | 18 nM | 7 ×10⁻⁶ cm/s
4 | O=C1c2c(c3n(c(=O)c2O)C2(CCC4CC42)N(CCN2C(=O)CCC2=O)C3=O)CCN1Cc1ccc(F)c(Cl)c1 (stereo not given) | 0.058 | 89 µM (≈ 50.6 µg/mL) | 48 µM (≈ 27.3 µg/mL) | 7.3 mL/min/kg | 2.1 L/kg | 396 min | 4.5 to 5% | 7 nM | 7 nM | 11 nM | 7 nM | 7 nM | 8 nM | 23 nM | 46 nM | –
5 | O=C1N[C@]2(CC[C@H]3C[C@H]32)n2c1c1c(c(O)c2=O)C(=O)N(Cc2ccc(F)c(Cl)c2)CC1 | – | 30 to 50 µM (≈ 13.3 to 22.2 µg/mL) | 31 µM (≈ 13.8 µg/mL) | 0.12 mL/min/kg | 0.1 L/kg | 780 min | 15% | 30 nM | 210 nM | 28 nM | 107 nM | 450 nM | 84 nM | 491 nM | 206 nM | –
